Here are results for 13 molecules from patent EP0682649B1, “DEUTERATED SEVOFLURANE AS AN INHALATIONAL ANESTHETIC” (UNIVERSITY OF IOWA RESEARCH FOUNDATION, priority 1993, dated 1994).

SMILES strings stand for the structures. Like-named read-outs stand apart in the source and are kept apart here.

One series concerns mice. The note with it: cited from earlier work.
For series [1] the following is noted: cited from earlier work; for metabolism and defluorination relative to the undeuterated compound: U.S. Patent 4,154,971, U.S. Patent 4,153,636.
For series [2] the following is noted: cited from earlier work.
Series [3] can be described thus: Breakdown by soda lime in an anesthesia circuit (gas chromatography). The note with it: for production of volatile degradation by-products: soda lime temperature maintained in the range of 4°C to 27°C. It counts as physicochemical. Here is the method:
An anesthesia circuit containing fresh soda lime (1.5 kg) was set up with an anesthesia machine (Foregger F 500). […] The gases were re-circulated at a total circuit flow rate of 1.5 liters per minute (a relatively low clinical total flow rate) in a closed system with a respirator. Carbon dioxide was added to the circuit at a constant rate of 200 ml per minute. This set up the conditions for "worst case" breakdown of sevoflurane by soda lime.
Experiments were conducted at exothermic temperature versus with the soda lime canister immersed in an ice bath. […] Products were continually detected for the remainder of the experiments (up to eight hours) by gas chromatography.

The conditions of series [4]: cited from earlier work. This is another data set of the same source.
In the next series the test system is Male Sprague-Dawley rats. Nature of the series: Induction of anesthesia in exposure chamber at 3% anesthetic. It counts as in vivo. To be noted: initial concentration 3% anesthetic in 100% oxygen, 3.8 L chamber. The protocol:
(§1) The animals were exposed in a 3.8 L plastic exposure chamber with an atmosphere of 100% oxygen. Male Sprague-Dawley rats (200-220g, 4 per group) were placed in the chamber and the chamber was flushed with oxygen and sealed. Anesthetic was introduced into the chamber in liquid form via an injection port. Quantities were introduced to give initial concentrations of 3% anesthetic (enflurane, 464 µl; sevoflurane and D2-sevoflurane, 524 µl). The rats became anesthetized within 4-6 minutes after introduction of each anesthetic. Oxygen and carbon dioxide were monitored periodically during the exposure period with an Ohmeda 6000 multi-gas monitor.

A short description of series [5]: Incubations with soda lime in static systems. It is filed as physicochemical. The note with it: for degradation products with soda lime: static system.
The next series deals with rat liver microsomes. It counts as in vitro ADME, male Sprague-Dawley rats. The note with it: for defluorination by rat liver microsomes, nmol F^- /mg protein/30 min ± S.E.: 1 µl anesthetic per incubation, mean and standard error of triplicate determinations; for percent decline from sevoflurane values (degree of inhibited metabolism): following correction for background (0.43). Here is the method: The metabolism of D2-sevoflurane is expected to liberate one fluoride ion for each molecule metabolized by cytochrome P450 since the metabolism of sevoflurane liberates fluoride and hexafluoroisopropanol. To determine the metabolism of D2-sevoflurane relative to sevoflurane and enflurane, these anesthetics were incubated with hepatic microsomes from untreated male Sprague-Dawley rats (200-230g), or rats treated with isoniazid (80mg/kg, i.p. for 5 days), or phenobarbital (0.2% in the drinking water for 4 days). Isoniazid induces the cytochrome P450 isozyme P450 2E1 which is thought to metabolize the volatile anesthetics, and phenobarbital induces several forms also shown to play a role in anesthetic metabolism in the rat.
Each incubation vial (6 ml plastic vial) contained 3 ml of 5 mg/ml microsomal protein in a 0.1 M sodium phosphate buffer, pH 7.4. An NADPH generating system was added to cytochrome P450 activity, and the NADPH generating system was omitted from control incubations. […] Reactions were stopped by placing the vials on ice. Fluoride was assayed in the microsomal mixtures using fluoride ion-specific electrodes (Fisher Scientific) and a 720A Orion pH/ISE meter. Following incubation microsomes were mixed with an equal volume of TISABII buffer for fluoride analysis. Fluoride in each sample was determined from standard curves constructed using fluoride standards (10^-7 to 10^-3 M NaF) prepared from a commercially available standard solution (10^-1 M NaF).

Series [6] in a line: In vivo metabolism: plasma fluoride after 30 minute inhalation exposure. Also noted: species or system Male Sprague-Dawley rats. The note with it: 30 minute exposure, 3% anesthetic.
Description: Untreated rats or rats treated with isoniazid or phenobarbital were exposed to D2-sevoflurane, sevoflurane, or enflurane to determine the relative rates of fluoride production in vivo.
as §1
Following a 30 minute exposure period, the chamber was flushed with 100% oxygen for 5 minutes and the animals rapidly awakened. The rats were immediately removed and injected i.p. with 80 mg/kg secobarbital. While anesthetized 3 to 4 ml of blood were withdrawn by cardiac puncture within 15 minutes of termination of anesthetic exposure (within 10 minutes of removal from the chamber). Plasma was prepared and fluoride analyzed as described above.

Setting [7] is: Animal Treatment: Phenobarbital.

Regarding `FC(F)C(F)(F)COC(F)(F)F` [trifluoromethyl-2,2,3,3-tetrafluoropropyl ether], the “concentration causing violent convulsions and death (as low as)” value in the series on mice was “.5%”.

Consider `[2H]C(F)(Br)C(F)(F)OC(F)F` (stereo not drawn) [1,1,2-trifluroro-2-bromo-2-deuteroethyl difluoromethyl ether], for which, in series [1], the “metabolism and defluorination relative to the undeuterated compound” value was “slower metabolism and thus slower defluorination”.

Take `[2H]C(Cl)(Br)C(F)(F)F` (stereo not drawn) [Deuterated Halothane]: in series [1] (Sipes et al., J. Pharmacol. Exp. Ther. 214: 716-720, 1980), the “effect of deuteration on metabolism” value is on record as “inhibits its metabolism to trifluoroacetic acid, but not its metabolism to release fluoride”.

With `FC(F)OC(F)(C(F)F)C(F)F` [(CHF2)2CF-O-CHF2], in series [2] (in vivo), the anesthetic properties result is reported as “weak anesthetic in which deep anesthesia is not obtained”; the “electro-encephalographic and convulsant activity” value was “abnormal electro-encephalographic and convulsant activity is observed”.

Consider `[2H]C([2H])([2H])OC(F)(F)C(Cl)Cl` [2,2-dichloro-1,1-difluoro-1-methoxy-D3-ethane], for which the “metabolism and defluorination relative to the undeuterated compound” value in series [1] is listed as “decreased metabolism”.

With `FC(F)OCC(F)(F)C(F)(F)F` [CHF2OCH2CF2CF3], the anesthetic properties result in series [2] (in vivo) is given as “non-anesthetic up to its lethal concentration”. The convulsions result in the series with mice is “produces convulsions”.

For the molecule `FCOC(C(F)(F)F)C(F)(F)F` [Sevoflurane, fluoromethyl-1,1,1,3,3,3-hexafluoro-2-propyl ether], the “time after circuit start at which degradation products were detected” value in [3] (exothermic temperature, soda lime core 44°C to 47°C, initial concentration 2.7%, flow 1.5 liters per minute) is recorded as “about 1.5 hours”. Besides, the degradation products detected result in [3] (soda lime canister in ice bath, core 22°C to 27°C, run up to eight hours) is “no degradation products were detected”. Besides, the “production of volatile degradation by-products” value in [3] is “virtually insignificant levels”. For the same molecule, the “lower flammability limit in oxygen” value in series [4] is recorded as “about 11.8 volume percent”. Moreover, the “time until rats became anesthetized after introduction of anesthetic” value (“time until rats became anesthetized” below) in the series on Male Sprague-Dawley rats lay within 4 to 6 min. Moreover, the “degradation products with soda lime” value is given as “some degradation products including "Compound A" were detected” in [5] (22°C) and “substantial degradation products, including "Compound A", were produced” in series [5] (45°C). In addition, the “defluorination by rat liver microsomes, nmol F^- /mg protein/30 min ± S.E.” value in the series with rat liver microsomes (setting [7]) is 1.18 ± 0.06 nmol F^- /mg protein/30 min.

As for `FC(F)OC(F)(F)C(F)Cl` (stereo not drawn) [enflurane], in the series with Male Sprague-Dawley rats, the “time until rats became anesthetized” value was 4 to 6 min. In addition, the “anesthetic concentration-dependent inhibition of metabolism” value in the series with rat liver microsomes (microsomes from isoniazid treated rats (figure 1)) is “anesthetic concentration-dependent inhibition of metabolism”.

On to `COC(F)(C(F)(F)F)C(F)(F)F` [CH3OCF(CF3)2], for which the “non-anesthetic up to (concentration)” value in [2] (U.S. Patent 3,683,092) is on record as greater than 8 % by volume in oxygen.

For the molecule `[2H]C(Cl)(Cl)C(F)(F)OC` [1,1-difluoro-2,2-dichloro-2-deuteroethyl methyl ether], the “metabolism and defluorination relative to the undeuterated compound” value in series [1] is reported as “more readily metabolized into inorganic fluoride than the undeuterated compound”; in series [1] (listed as 1,1 difluoro-2-2-dichloro-2-deuteroethyl methyl ether), “increase inorganic fluoride release”.

`[2H]C([2H])(F)OC(C(F)(F)F)C(F)(F)F` [D2-sevoflurane, fluoro-dideutero-methyl-1,1,1,3,3,3,-hexafluoro-2-propyl ether]: the “production of volatile degradation by-products” value in series [3] is “virtually insignificant levels”. Also, the “time until rats became anesthetized” value in the series on Male Sprague-Dawley rats fell in the range of 4 to 6 min. The “degradation with soda lime, compared with sevoflurane” value in [5] (similar experiments to those run with sevoflurane) is given as “essentially the same”. Besides, the “defluorination by rat liver microsomes, nmol F^- /mg protein/30 min ± S.E.” value with rat liver microsomes (Animal Treatment: Isoniazid) is reported as 1.55 ± 0.39 nmol F^- /mg protein/30 min; in the series with rat liver microsomes (Animal Treatment: None), 0.62 ± 0.60 nmol F^- /mg protein/30 min; in the series on rat liver microsomes (setting [7]) it was 0.18 ± 0.03 nmol F^- /mg protein/30 min. Moreover, the results for the “percent decline from sevoflurane values (degree of inhibited metabolism)” value with rat liver microsomes (microsomes from isoniazid treated rats), with rat liver microsomes (microsomes from phenobarbital treated rats) and with rat liver microsomes (microsomes from untreated rats) were 79%, 84% and 68%, respectively. Further, in the series with rat liver microsomes (microsomes from phenobarbital and isoniazid treated rats, over a wide range of anesthetic concentrations (figures 1 and 2)), the “defluorinated slower than sevoflurane (% less)” value is 70-86%. The “plasma fluoride liberated, % less than sevoflurane” value came out at 61% in series [6] (isoniazid treated rats), 66% in series [6] (phenobarbital treated animals) and 34% in series [6] (untreated rats). The figures for the “plasma fluoride, % less than enflurane anesthetized animals” value in series [6] (isoniazid treated rats), in [6] (phenobarbital treated rats) and in series [6] (untreated rats) were 80%, 45% and 40%, respectively.

Take `[2H]C(Cl)(Cl)C(F)(F)OC(F)F` [1,1-difluoro-2-deutero-2,2-dichloroethyl difluoromethyl ether]: the “metabolism and defluorination relative to the undeuterated compound” value in series [1] is “slower metabolism and thus slower defluorination”.

For the molecule `[2H]C(F)(Cl)C(F)(F)OC(F)F` (stereo not drawn) [1,1,2-trifluoro-2-chloro-2-deuteroethyl-difluoromethyl ether], the “metabolism and defluorination relative to the undeuterated compound” value in series [1] is “slower metabolism and thus slower defluorination”.
